# Measured values from patent publication US11905231B1, “Solid forms, salts and polymorphs of anti-fibrotic compounds” (Certa Therapeutics Pty Ltd, priority 2023, dated 2024).
# Read-outs that look alike come from different tables or passages of the source.
# Tests used:
# [1] = Thermogravimetric Analysis (TGA) weight loss; type: physicochemical; details: for Total weight loss by TGA: from r.t. to 350° C. (or to decomposition if lower); for Weight loss (TGA): when heated from about 25° C. to about 120° C.
# [2] = Oral pharmacokinetic study in Sprague-Dawley rats; details: rat; for F (fraction absorbed, bioavailability): based on AUCInf
# Procedure: Bioavailability is determined by the equation AUC=F·D/CLT, wherein AUC is the area under the plot of plasma concentration, F is the absolute bioavailability, D is the dose, and CLT is the total clearance.
# The rats received a single oral dose of 20 mg/kg body weight (b.w.). The doses were prepared as a 2.0 mg/mL suspension in a vehicle of 20 mM Na2HPO4 buffer containing 5% (v/v) DMSO, 0.4% (v/v) 1M NaOH and 0.4% (v/v) Tween 80 and a dose volume of 10 mL/kg b.w.
# Pharmacokinetic analysis was performed on the average plasma concentration for each time point.
# physchem = details: 37 °C, thermodynamic from solid
# Procedure: The term “FaSSIF media” refers to Fasted State Simulated Intestinal Fluid media prepared using FaSSIF powder and buffer concentrate obtained from the commercial source Biorelevant (London, UK, biorelevant.com). The FaSSIF powder contains sodium taurocholate, lecithin, sodium chloride, monobasic sodium phosphate and sodium hydroxide. The FaSSIF media is prepared as described at https://biorelevant.com/learning_center/what-is-fassif/. Briefly the pH6.5 buffer containing 0.42 g of NaOH, 3.95 g of NaH2PO4·H2O and 6.19 g of NaCl was dissolved in 0.9 L of purified water and the pH of the solution was adjusted to 6.5 using sodium hydroxide 1N or hydrochloric acid 1N and made up to volume (1 L) with purified water at room temperature. Dissolve 2.24 g of the FaSSIF powder in 0.5 L of the pH6.5 buffer, stirring until the powder is completely dissolved, and then make up to volume (1 L) with buffer at room temperature.
# The samples were stirred using a magnetic stirrer at 37° C. […] The samples were filtered via centrifugation (12,000 rpm, 5 min). The supernatant was diluted (2×) with HPLC grade solvent and analyzed by HPLC.
# HPLC gradient was as follows:
# The pH 1.2, pH 4.5, and pH 6.8 media were prepared as standard aqueous buffered solutions following USP <39>.
# As used herein, the term “FaSSIF media” means Fasted Stated Simulated Intestinal Fluid media prepared according to the method known in the art.
# [3] = Dynamic Vapor Sorption (DVS) hygroscopicity; details: at 80% RH, 25° C., measured during 0% RH to 95% RH increase
# Excerpt: The change in water content is recited as a % change in mass of the starting sample and all such water sorption (DVS) values recited herein will be understood to explicitly include numerical values within a +/−0.2% variance.
# The humidity is held constant at 30% RH until the mass change of the sample reaches equilibrium, as determined by the rate of change of weight being 0.01%/minute or less. The humidity is then changed to the next step value and the consequent mass change measured, and so on.
# The hygroscopicity values recited herein refer to total water gain since the start of the experiment only and so may not necessarily be equivalent to the actual total water content of the sample.
# [4] = single oral dose 20 mg/kg, 0.5 h post dose
# [5] = single oral dose 20 mg/kg, 1 h post dose
# [6] = single oral dose 20 mg/kg, 2 h post dose
# [7] = single oral dose 20 mg/kg, 4 h post dose
# [8] = single oral dose 20 mg/kg, 8 h post dose
# [9] = single oral dose 20 mg/kg, 24 h post dose
# [10] = single oral dose 20 mg/kg, plasma
# [11] = single oral dose 20 mg/kg, plasma, mean
# [12] = single oral dose 20 mg/kg, plasma, extrapolated area under the curve
# [13] = FaSSIF (pH 7.5), pH 7.5, fassif
# [14] = FeSSIF (pH 7.8), pH 7.8, fessif
# [15] = pH 1.2 aqueous buffer, pH 1.2, simulated gastric fluid
# [16] = Sprague-Dawley, in vivo, po, 20 mg/kg
structure (smiles),measurement,setting,value
C#CCOc1ccc(/C=C/C(=O)Nc2ccccc2C(=O)O)cc1OC.N [Ammonium salt],Weight loss by TGA,[1]; from 0° C. to 100° C.,7.07% from 0 °C to
same,Weight loss by TGA,[1]; from 100° C. to 170° C.,4.48% from 100 °C to
same,Weight loss by TGA,[1]; from r.t. to 120° C.,8.94% from r.t. to
same,Total weight loss by TGA,[1],11.55% total weight
same,Maximum plasma concentration (Cmax) compared to the other tested compounds,[2]; single oral dose 20 mg/kg,highest maximum plasma concentration
same,Mean concentration (plasma),[2]; [4],32700 ng/mL
same,Mean concentration (plasma),[2]; [5],44033 ng/mL
same,Mean concentration (plasma),[2]; [6],35033 ng/mL
same,Mean concentration (plasma),[2]; [7],20833 ng/mL
same,Mean concentration (plasma),[2]; [8],14400 ng/mL
same,Mean concentration (plasma),[2]; [9],575 ng/mL
same,AUCExtr,[2]; [10],0.932%
same,AUClast,[2]; [11],313.832 µg·h/mL
same,Cmax,[2]; [11],44033 ng/mL
same,t1/2,[2]; [11],3.62 h
same,tmax,[2]; [11],1.00 h
same,AUCInf,[2]; [12],317.034 µg·h/mL
same,"F (fraction absorbed, bioavailability)",[2]; single oral dose 20 mg/kg,64%
C#CCOc1ccc(/C=C/C(=O)Nc2ccccc2C(=O)O)cc1OC [Free form],solubility at 1 h,physchem; [13],1340 µg/mL
same,solubility at 24 h,physchem; [13],1500 µg/mL
same,solubility at 1 h,"physchem; FaSSIF, pH 6.5, fassif",312 µg/mL
same,solubility at 24 h,"physchem; FaSSIF, pH 6.5, fassif",103 µg/mL
same,solubility at 1 h,physchem; [14],806 µg/mL
same,solubility at 24 h,physchem; [14],400 µg/mL
same,solubility at 1 h,"physchem; FeSSIF, pH 5, fessif",39 µg/mL
same,solubility at 24 h,"physchem; FeSSIF, pH 5, fessif",18 µg/mL
same,solubility at 1 h,physchem; [15],10 µg/mL
same,solubility at 24 h,physchem; [15],4 µg/mL
same,solubility at 1 h,physchem; pH 4.5 aqueous buffer,35 µg/mL
same,solubility at 24 h,physchem; pH 4.5 aqueous buffer,6 µg/mL
same,solubility at 1 h,physchem; pH 6.8 aqueous buffer,394 µg/mL
same,solubility at 24 h,physchem; pH 6.8 aqueous buffer,51 µg/mL
same,Weight loss by TGA,[1]; from r.t. to 120° C.,1.83% from r.t. to
same,Total weight loss by TGA,[1],1.83% total weight
same,AUCExtr,[2]; [16],2.10%
same,AUCInf,[2]; [16],170.145 µg·h/mL
same,AUClast,[2]; [16],166.522 µg·h/mL
same,bioavailability,[2]; [16],35%
same,half-life,[2]; [16],4.23 h
same,tmax,[2]; [16],3.67 h
same,Mean concentration (plasma),"[2]; Sprague-Dawley, in vivo, po, 20 mg/kg, 0.5 h",9947 ng/mL
same,Mean concentration (plasma),"[2]; Sprague-Dawley, in vivo, po, 20 mg/kg, 1 h",16427 ng/mL
same,Mean concentration (plasma),"[2]; Sprague-Dawley, in vivo, po, 20 mg/kg, 2 h",13217 ng/mL
same,Mean concentration (plasma),"[2]; Sprague-Dawley, in vivo, po, 20 mg/kg, 4 h",11693 ng/mL
same,Mean concentration (plasma),"[2]; Sprague-Dawley, in vivo, po, 20 mg/kg, 8 h",8990 ng/mL
same,Mean concentration (plasma),"[2]; Sprague-Dawley, in vivo, po, 20 mg/kg, 24 h",586 ng/mL
C#CCOc1ccc(/C=C/C(=O)Nc2ccccc2C(=O)[O-])cc1OC.[K+] [Potassium salt],Hygroscopicity by DVS,[3],6.05%
same,1 h Solubility,"FaSSIF (pH 7.5), 37° C., 1 h",>5140 µg/mL
same,24 h Solubility,"FaSSIF (pH 7.5), 37° C., 24 h",>5140 µg/mL
same,1 h Solubility,"FaSSIF, 37° C., 1 h",218 µg/mL
same,24 h Solubility,"FaSSIF, 37° C., 24 h",211 µg/mL
same,1 h Solubility,"FeSSIF (pH 7.8), 37° C., 1 h",>5140 µg/mL
same,24 h Solubility,"FeSSIF (pH 7.8), 37° C., 24 h",>5140 µg/mL
same,1 h Solubility,"FeSSIF, 37° C., 1 h",23 µg/mL
same,24 h Solubility,"FeSSIF, 37° C., 24 h",25 µg/mL
same,1 h Solubility,"pH 1.2 medium, 37° C., 1 h",18 µg/mL
same,24 h Solubility,"pH 1.2 medium, 37° C., 24 h",7 µg/mL
same,1 h Solubility,"pH 4.5 medium, 37° C., 1 h",30 µg/mL
same,24 h Solubility,"pH 4.5 medium, 37° C., 24 h",6 µg/mL
same,1 h Solubility,"pH 6.8 medium, 37° C., 1 h",111 µg/mL
same,24 h Solubility,"pH 6.8 medium, 37° C., 24 h",78 µg/mL
same,Weight loss by TGA,[1]; from 25° C. to 57° C.,2.02% from 25 °C to
same,Weight loss by TGA,[1]; from 57° C. to 140° C.,4.40% from 57 °C to
same,Weight loss by TGA,[1]; from r.t. to 120° C.,5.34% from r.t. to
same,Total weight loss by TGA,[1],6.42% total weight
same,Mean concentration (plasma),[2]; [4],24600 ng/mL
same,Mean concentration (plasma),[2]; [5],34467 ng/mL
same,Mean concentration (plasma),[2]; [6],27200 ng/mL
same,Mean concentration (plasma),[2]; [7],17000 ng/mL
same,Mean concentration (plasma),[2]; [8],10850 ng/mL
same,Mean concentration (plasma),[2]; [9],687 ng/mL
same,AUCExtr,[2]; [10],1.68%
same,AUClast,[2]; [11],244.45 µg·h/mL
same,Cmax,[2]; [11],34733 ng/mL
same,t1/2,[2]; [11],4.21 h
same,tmax,[2]; [11],1.33 h
same,AUCInf,[2]; [12],248.674 µg·h/mL
same,"F (fraction absorbed, bioavailability)",[2]; single oral dose 20 mg/kg,51%
C#CCOc1ccc(/C=C/C(=O)Nc2ccccc2C(=O)O)cc1OC.NC(CO)(CO)CO [Tris salt],Hygroscopicity by DVS,[3],1.61%
same,Hygroscopicity by DVS,[3]; listed as tris(hydroxymethyl)aminomethane (Tris),1.61%
same,1 h Solubility,pH 1.2,1 µg/mL
same,24 h Solubility,pH 1.2,4 µg/mL
same,1 h Solubility,pH 4.5,<1 µg/mL
same,24 h Solubility,pH 4.5,2 µg/mL
same,1 h Solubility,pH 6.8,88 µg/mL
same,24 h Solubility,pH 6.8,67 µg/mL
same,1 h Solubility,pH 7.5,>5030 µg/mL
same,24 h Solubility,pH 7.5,4641 µg/mL
same,1 h Solubility,pH 7.8,>5100 µg/mL
same,24 h Solubility,pH 7.8,4212 µg/mL
same,Weight loss by TGA,[1]; from 0° C. to 120° C.,0.65% from 0 °C to
same,Weight loss by TGA,[1]; from 120° C. to 150° C.,0.20% from 120 °C to
same,Weight loss by TGA,[1]; from r.t. to 120° C.,0.65% from r.t. to
same,Total weight loss by TGA,[1],0.85% total weight
same,Weight loss (TGA),[1],0.65%
same,Mean concentration (plasma),[2]; [4],21300 ng/mL
same,Mean concentration (plasma),[2]; [5],36833 ng/mL
same,Mean concentration (plasma),[2]; [6],31067 ng/mL
same,Mean concentration (plasma),[2]; [7],14467 ng/mL
same,Mean concentration (plasma),[2]; [8],11317 ng/mL
same,Mean concentration (plasma),[2]; [9],650 ng/mL
same,AUCExtr,[2]; [10],1.49%
same,AUClast,[2]; [11],246.642 µg·h/mL
same,Cmax,[2]; [11],37367 ng/mL
same,t1/2,[2]; [11],4.02 h
same,tmax,[2]; [11],1.33 h
same,AUCInf,[2]; [12],250.596 µg·h/mL
same,"F (fraction absorbed, bioavailability)",[2]; single oral dose 20 mg/kg,51%
C#CCOc1ccc(/C=C/C(=O)Nc2ccccc2C(=O)O)cc1OC.CC(C)(C)N [tert-Butylamine (TBA) salt],Hygroscopicity by DVS,[3],1.07%
same,Hygroscopicity by DVS,[3]; listed as tert-butylamine (TBA),1.07%
same,Hygroscopicity by DVS,[3]; listed as tert-butylamine salt,about 1.07%
same,Weight loss by TGA,[1]; from 25° C. to 120° C.,0.94% from 25 °C to
same,Weight loss by TGA,[1]; from 120° C. to 190° C.,6.91% from 120 °C to
same,Weight loss by TGA,[1]; from r.t. to 120° C.,0.94% from r.t. to
same,Total weight loss by TGA,[1],7.85% total weight
same,Weight loss (TGA),[1],0.94%
same,Weight loss (TGA),[1]; listed as tert-butylamine salt,about 0.94%
same,Mean concentration (plasma),[2]; [4],18080 ng/mL
same,Mean concentration (plasma),[2]; [5],26967 ng/mL
same,Mean concentration (plasma),[2]; [6],29167 ng/mL
same,Mean concentration (plasma),[2]; [7],17133 ng/mL
same,Mean concentration (plasma),[2]; [8],15433 ng/mL
same,Mean concentration (plasma),[2]; [9],918 ng/mL
same,AUCExtr,[2]; [10],1.83%
same,AUClast,[2]; [11],287.306 µg·h/mL
same,Cmax,[2]; [11],32000 ng/mL
same,t1/2,[2]; [11],4.18 h
same,tmax,[2]; [11],1.67 h
same,AUCInf,[2]; [12],292.817 µg·h/mL
same,"F (fraction absorbed, bioavailability)",[2]; single oral dose 20 mg/kg,59%
